Assay results: PubChem BioAssay (NCI)
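Tested at 5 concentrations; 48 h exposure; 96-well plates; endpoints linearly interpolated, else capped at highest concentration. Abbreviation: GI50, concentration required for 50% inhibition of growth. At the TGI there is no net growth.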

Columns and labels:
Assay in all cases: NCI tumour cell line growth inhibition, 48 h; in the data active = GI50 below about 0.43 µM; inactive = the rest
[1] = system: PC-3 prostate
[2] = system: HT29 colon
[3] = system: HCT-15 colon
[4] = system: NCI-H23 lung
[5] = system: K-562 leukemia
[6] = system: EKVX NSCLC
[7] = system: COLO 205 colon
[8] = system: HCT-116 colon
[9] = system: SK-MEL-2 melanoma
[10] = system: MDA-MB-231 breast
[11] = system: OVCAR-8 ovarian
[12] = system: ACHN renal
[13] = system: A498 renal
[14] = system: NCI-H226 lung
[15] = system: NCI-H522 lung
[16] = system: KM12 colon
[17] = system: 786-0 renal
[18] = system: UO-31 renal
[19] = system: OVCAR-3 ovarian
[20] = system: SK-MEL-28 melanoma
[21] = system: NCI-H460 lung
[22] = system: MALME-3M melanoma
[23] = system: SK-MEL-5 melanoma
[24] = system: MOLT-4 leukemia
[25] = system: RXF 393 renal
[26] = system: U251 CNS
[27] = system: DU-145 prostate
[28] = system: HOP-62 NSCLC
[29] = system: UACC-62 melanoma
[30] = system: MCF7 breast
[31] = system: M14 melanoma
[32] = system: BT-549 breast
[33] = system: CAKI-1 renal
[34] = system: SF-268 CNS
[35] = system: SNB-75 CNS
[36] = system: LOX IMVI melanoma
[37] = system: SF-295 CNS
[38] = system: IGROV1 ovarian
[39] = system: HS 578T breast
[40] = system: MDA-MB-435
[41] = system: SK-OV-3 ovarian
[42] = system: OVCAR-5 ovarian
[43] = system: HL-60(TB) leukemia
[44] = system: RPMI-8226 leukemia
[45] = system: CCRF-CEM leukemia
[46] = system: SW-620 colon
[47] = system: SN12C renal
[48] = system: T-47D breast
[49] = system: OVCAR-4 ovarian
[50] = system: TK-10 renal
[51] = system: SNB-19 CNS
[52] = system: SF-539 CNS
[53] = system: SR leukemia
[54] = system: HCC-2998 colon
[55] = system: A549 NSCLC
[56] = system: NCI/ADR-RES ovarian
[57] = system: UACC-257 melanoma
[58] = system: HOP-92 NSCLC

COc1cc2c(c(OC)c1OC)-c1ccc(NNC(N)=S)c(=O)cc1[C@@H](NC(C)=O)CC2
> 21.1 µM: TGI [13]
> 29.4 µM: TGI [44]
inactive: GI50 [3] 4.23 µM | GI50 [6] 3.67 µM | GI50 [11] 0.863 µM | GI50 [12] 7.19 µM | GI50 [13] 0.93 µM | GI50 [15] 0.55 µM | GI50 [17] 0.867 µM | GI50 [18] > 25.9 µM | GI50 [20] 0.777 µM | GI50 [22] 2.8 µM | GI50 [24] 0.568 µM | GI50 [28] 0.739 µM | GI50 [29] 0.666 µM | GI50 [33] 11.7 µM | GI50 [34] 0.509 µM | GI50 [36] 0.687 µM | GI50 [37] 0.63 µM | GI50 [38] 1.18 µM | GI50 [41] 0.817 µM | GI50 [42] 7.21 µM | GI50 [45] 0.434 µM | GI50 [47] 0.881 µM | GI50 [48] > 100 µM | GI50 [49] 0.625 µM | GI50 [50] > 26 µM | GI50 [51] 0.558 µM | GI50 [55] 3.12 µM | GI50 [56] 19.4 µM
3.52 µM: TGI [10]
0.747 µM: TGI [25]
4.31 µM: TGI [52]
2.52 µM: TGI [23]
> 100 µM: TGI [1] | TGI [2] | TGI [3] | TGI [5] | TGI [6] | TGI [9] | TGI [11] | TGI [12] | TGI [14] | TGI [15] | TGI [17] | TGI [18] | TGI [20] | TGI [22] | TGI [24] | TGI [26] | TGI [28] | TGI [29] | TGI [30] | TGI [33] | TGI [34] | TGI [35] | TGI [36] | TGI [37] | TGI [38] | TGI [39] | TGI [41] | TGI [42] | TGI [45] | TGI [46] | TGI [47] | TGI [48] | TGI [49] | TGI [50] | TGI [51] | TGI [53] | TGI [55] | TGI [56] | TGI [57]
0.735 µM: TGI [31]
active: GI50 [1] 0.29 µM | GI50 [2] 0.365 µM | GI50 [4] 0.414 µM | GI50 [5] 0.348 µM | GI50 [7] 0.244 µM | GI50 [8] 0.348 µM | GI50 [10] 0.327 µM | GI50 [16] 0.301 µM | GI50 [19] 0.238 µM | GI50 [21] 0.397 µM | GI50 [23] 0.345 µM | GI50 [25] 0.298 µM | GI50 [26] 0.415 µM | GI50 [27] 0.341 µM | GI50 [30] 0.372 µM | GI50 [31] 0.284 µM | GI50 [32] 0.37 µM | GI50 [40] 0.255 µM | GI50 [43] 0.226 µM | GI50 [44] 0.39 µM | GI50 [46] 0.365 µM | GI50 [52] 0.338 µM | GI50 [53] 0.279 µM | GI50 [54] 0.263 µM
0.529 µM: TGI [7]
> 32.6 µM: TGI [8]
1.44 µM: TGI [27]
> 49.9 µM: TGI [4]
1.92 µM: TGI [16]
0.623 µM: TGI [19]

C[C@@H]1CC[C@]2(C(=O)O)CC[C@]3(C)C(=CC[C@@H]4[C@@]5(C)CC[C@H](O)C(C)(C)[C@@H]5CC[C@]43C)[C@@H]2[C@]1(C)O
31.8 µM: TGI [9] | TGI [41]
34.2 µM: TGI [34]
29.2 µM: TGI [54]
42.1 µM: TGI [46]
16.1 µM: TGI [39]
28.1 µM: TGI [35]
24.6 µM: TGI [8]
35.7 µM: TGI [30]
30.5 µM: TGI [49]
30.1 µM: TGI [47]
27.5 µM: TGI [50]
33.9 µM: TGI [44]
26.7 µM: TGI [16]
26.9 µM: TGI [20]
27.3 µM: TGI [26] | TGI [33]
12 µM: TGI [52]
28.2 µM: TGI [32]
28.8 µM: TGI [40]
33.3 µM: TGI [13] | TGI [55]
31.5 µM: TGI [42]
33 µM: TGI [6]
37.3 µM: TGI [11]
17.3 µM: TGI [21]
29.5 µM: TGI [36]
10.1 µM: TGI [29]
27.9 µM: TGI [15]
22.6 µM: TGI [10]
18.3 µM: TGI [24]
20.7 µM: TGI [58]
35.9 µM: TGI [4]
24.2 µM: TGI [3]
21.1 µM: TGI [27]
32.9 µM: TGI [48]
32.6 µM: TGI [19] | TGI [56]
23.5 µM: TGI [18]
30 µM: TGI [7] | TGI [53]
19.8 µM: TGI [43] | TGI [57]
30.7 µM: TGI [38]
10.6 µM: TGI [37]
8.1 µM: TGI [31]
19.6 µM: TGI [5]
18.7 µM: TGI [17]
23.2 µM: TGI [45]
30.4 µM: TGI [12]
29.7 µM: TGI [51]
25.7 µM: TGI [22]

NS(=O)(=O)c1ccc2c(c1)OCCOCCOCCOCCO2
> 100 µM: TGI [1] | TGI [2] | TGI [3] | TGI [4] | TGI [5] | TGI [6] | TGI [7] | TGI [8] | TGI [10] | TGI [11] | TGI [12] | TGI [13] | TGI [14] | TGI [15] | TGI [16] | TGI [17] | TGI [18] | TGI [20] | TGI [21] | TGI [22] | TGI [23] | TGI [24] | TGI [27] | TGI [28] | TGI [29] | TGI [30] | TGI [31] | TGI [32] | TGI [33] | TGI [34] | TGI [35] | TGI [36] | TGI [37] | TGI [38] | TGI [39] | TGI [40] | TGI [41] | TGI [43] | TGI [44] | TGI [45] | TGI [46] | TGI [47] | TGI [48] | TGI [50] | TGI [51] | TGI [52] | TGI [53] | TGI [54] | TGI [55] | TGI [57]
